Experimental data from ChEMBL document CHEMBL3351501, “Inhibition of pseudolysin and thermolysin by hydroxamate-based MMP inhibitors” (Eur J Med Chem, 2015).

Tests used:
[1] = Inhibition of Bacillus thermoproteolyticus thermolysin using Mca-Arg-Pro-Pro-Gly-Phe-Ser-Ala-Phe-Lys-(Dnp)-OH as substrate after 1 hr by fluorescence assay in presence of Brij-35
[2] = biological target: T1, Elastase (Pseudomonas aeruginosa (strain ATCC 15692 / PAO1 / 1C / PRS 101 / LMG12228), UniProt P14756); experiment: Inhibition of Pseudomonas aeruginosa pseudolysin using Abz-Ala-Gly-Leu-Ala-p-nitrobenzylamide as substrate after 15 mins
T1 sequence (P14756 whole entry): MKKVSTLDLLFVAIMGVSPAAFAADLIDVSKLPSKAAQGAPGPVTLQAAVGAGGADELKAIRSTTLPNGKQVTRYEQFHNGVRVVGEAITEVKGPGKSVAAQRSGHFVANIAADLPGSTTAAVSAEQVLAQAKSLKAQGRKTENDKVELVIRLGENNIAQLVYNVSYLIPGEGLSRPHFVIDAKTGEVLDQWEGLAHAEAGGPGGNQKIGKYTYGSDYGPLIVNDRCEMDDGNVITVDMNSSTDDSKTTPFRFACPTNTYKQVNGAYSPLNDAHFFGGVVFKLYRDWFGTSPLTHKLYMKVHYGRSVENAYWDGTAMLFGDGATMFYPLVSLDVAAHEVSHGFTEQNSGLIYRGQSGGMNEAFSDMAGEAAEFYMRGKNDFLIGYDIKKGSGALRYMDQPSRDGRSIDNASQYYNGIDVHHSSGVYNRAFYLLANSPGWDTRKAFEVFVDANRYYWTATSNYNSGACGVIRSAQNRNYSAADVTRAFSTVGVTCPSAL

[3] = biological target: T1, Elastase; experiment: Inhibition of Pseudomonas aeruginosa pseudolysin using Mca-Arg-Pro-Pro-Gly-Phe-Ser-Ala-Phe-Lys-(Dnp)-OH as substrate after 1 hr by fluorescence assay in presence of Brij-35

SMILES | IC50 [1] [µM] | IC50 [2] [µM] | IC50 [3] [µM]
COc1ccc(S(=O)(=O)N(CC(=O)O)CC(=O)NCCc2ccc(S(N)(=O)=O)cc2)cc1 | 637 | > 282 | 
COc1ccc(S(=O)(=O)N(CC(=O)NO)CC(=O)NCCc2ccc(S(N)(=O)=O)cc2)cc1 | 164 | 15 | 33
NS(=O)(=O)c1ccc(CCNC(=O)CN(CC(=O)NO)S(=O)(=O)c2ccc(Oc3ccccc3)cc2)cc1 | 160 | 16 | 276
NS(=O)(=O)c1ccc(CCNC(=O)CN(CC(=O)NO)S(=O)(=O)c2ccc(-c3ccccc3)cc2)cc1 | 67 | 31 | 
NS(=O)(=O)c1ccc(CCNC(=O)CN(CC(=O)NO)Cc2ccccc2)cc1 | 12 | 0.4 | 
O=C(O)CN(CC(=O)NO)Cc1ccc([N+](=O)[O-])cc1 | 755 | 20 | 
O=C(O)CN(CC(=O)NO)Cc1ccc(-c2ccccc2)cc1 | > 1000 | > 121 | 
O=C(O)CN(CC(=O)NO)Cc1ccc(Oc2ccccc2)cc1 | 524 | > 200 | 430
O=C(O)CN(CC(=O)NO)S(=O)(=O)c1ccc(-c2ccccc2)cc1 | 440 | > 150 | 241
O=C(O)CN(CC(=O)NO)NCCCN1CCN(c2ccccc2)CC1 | > 1000 | > 330 | 
O=C(CN(CC(=O)NCCCN1CCN(c2ccccc2)CC1)Cc1ccccc1)NO | 8 | 6.7 | 2.8
O=C(O)CN(CC(=O)NO)S(=O)(=O)c1ccc(Oc2ccccc2)cc1 | 114 | > 186 | 46
COc1ccc(S(=O)(=O)N(CC(=O)O)CC(=O)NO)cc1 | 270 | 169 | 153
CC(C)[C@H](C(=O)NO)N(CC(=O)O)S(=O)(=O)c1ccc(Oc2ccccc2)cc1 | > 1000 | 82 | 336
